Measured values as given in patent US20070020193A1, “Dronabinol compositions and methods for using same” (priority 2005, published 2007).
Where “and” joins values, the source holds several entries; their conditions need not be identical. Equal values may be shown once. Entries after “also recorded” stand apart in the source; their conditions may differ.

Columns and labels:
healthy subjects [1] = experiment: Example 2: safety, adverse events; format: in vivo, human; conditions: for events reported among subjects treated with active drug: all six subjects; for events considered probably or possibly related to study drug: all six subjects on active drug
Method: (§1) Adverse events were recorded based on original descriptions from subject responses to queries. Complete medical histories and physical examinations were conducted. Vital signs were monitored, ECGs were recorded along with pulmonary function tests and laboratory examinations.
Treatment-emergent adverse events (TEAEs), defined as any event that begins or worsens after treatment with study medication, were summarized by MedDRA system organ class (SOC) for each treatment group. The number and percentage of subjects with TEAEs was tabulated for each treatment and with respect to maximum severity and relationship to study medication.

[2] = oral administration, first-pass metabolism; cited from earlier work
healthy subjects [3] = experiment: Example 1: heart rate and blood pressure; format: in vivo, human
From the text: Heart rate, conjunctiva congestion, subjective ratings, and a battery of computerized cognitive tests were used to evaluate pharmacodynamics. FIG. 11a-b are plots of mean baseline adjusted heart rate for Groups I-III. FIG. 12a-c show plots of placebo corrected diastolic blood pressure. […] FIG. 14a-b present comparisons of Active versus Placebo alertness and a plot of change in self-rated alertness. FIG. 15a-b show comparisons of Active v. Placebo for calmness and a plot of change in self-rated calmness.
For Examples 1 and 2: Heart rate was obtained from the blood pressure recordings or using telemetry.
Absolute values of heart rate and conjunctive congestion scores were used to calculate changes from baseline.
For Example 1: All pharmacodynamic variables were evaluated using descriptive statistics for all study evaluations.

healthy subjects [4] = experiment: Example 2: conjunctiva congestion rating; format: in vivo, human
From the text: Conjunctiva Congestion was rated by a trained observer on a scale of 0-3 based on the blood vessels present as follows:
0—None (The white of the eye was not affected)
3—Considerable (The compete white of the eye is red caused by a pattern of bigger vessels. This is associated with complaints.)
Changes from baseline in conjunctiva congestion and heart rate were compared for all time-points measured, and summarized using descriptive statistics. Subjective ratings were individually tabulated and sorted by treatment group, subject number, and time, and summarized using descriptive statistics. Separate tables were provided to summarize differences between males and females if applicable. Pharmacodynamic assessments were compared with delta-9 THC and 11-OH-THC blood concentrations and summarized using descriptive statistics.

healthy subjects [5] = experiment: Example 2: pulmonary function tests; format: in vivo, human
Method: as §1
Listings of values for each subject were presented with abnormal or out of range values for vital signs, laboratory assays, ECGs, pulmonary function tests, and physical examinations. Descriptive statistics (n, mean, standard deviation (SD), minimum, median, maximum) for all clinical laboratory safety parameters, ECGs, pulmonary function tests, and vital signs were provided. ECGs and physical examinations were to be summarized in shift tables to show changes from baseline between normal and abnormal findings.

healthy subjects [6] = test system: healthy subjects; parameters: species or system human; conditions: in vivo

With `CCCCCc1cc(O)c2c(c1)OC(C)(C)[C@@H]1CCC(C)=C[C@@H]21` [delta-9-THC, delta-9-tetrahydrocannabinol] the subjects reporting cough (healthy subjects [1]; 1.2 mg, Group I, all six) was 100%, the “subjects with increased liver function tests (summary)” value (healthy subjects [1]; 3.6 mg for two weeks) was “three out of nine subjects” and the subjects reporting cough (healthy subjects [1]; 3.6 mg, Group II, five out of six) was 83.3%. For the same compound, the “subjects reporting euphoric mood” value (healthy subjects [1]; Group 1, one subject) was 16.7%, the “most frequently reported TEAEs” value (healthy subjects [1]; Group I (1.2 mg dose level)) was “cough and somnolence” and the “TEAEs Probable/Possible, E = number of adverse events” value (healthy subjects [1]; Group I Active (1.2 mg)) was 13. For the same compound, the “TEAEs Probable/Possible, N = number of subjects” value (healthy subjects [1]; Group I Active (1.2 mg)) was 6, the “TEAEs Unlikely/Unrelated, E = number of adverse events” value (healthy subjects [1]; Group I Active (1.2 mg)) was 7 and the “TEAEs Unlikely/Unrelated, N = number of subjects” value (healthy subjects [1]; Group I Active (1.2 mg)) was 3. The “Any related TEAE, n (x %) subjects” value (healthy subjects [1]; Group I, 1.2 mg) was 6 (100%), the “Any related TEAE, number AEs” value (healthy subjects [1]; Group I, 1.2 mg) was 13 and the “Subjects with at least one AE, n (x %)” value (healthy subjects [1]; Group I, 1.2 mg) was 6 (100%). The “Subjects with at least one AE, number AEs” value (healthy subjects [1]; Group I, 1.2 mg) was 20, the “events reported among subjects treated with active drug” value (healthy subjects [1]; Group I) was 27 events and the “events considered probably or possibly related to study drug” value (healthy subjects [1]; Group I) was 13 events. For the same compound, the “most frequently reported TEAEs” value (healthy subjects [1]; Group II (3.6 mg dose level)) was “cough, headache, and euphoric mood”, the “TEAEs Probable/Possible, E = number of adverse events” value (healthy subjects [1]; Group II Active (3.6 mg)) was 17 and the “TEAEs Probable/Possible, N = number of subjects” value (healthy subjects [1]; Group II Active (3.6 mg)) was 6. For the same compound, the “TEAEs Unlikely/Unrelated, E = number of adverse events” value (healthy subjects [1]; Group II Active (3.6 mg)) was 9, the “TEAEs Unlikely/Unrelated, N = number of subjects” value (healthy subjects [1]; Group II Active (3.6 mg)) was 3 and the “Any related TEAE, n (x %) subjects” value (healthy subjects [1]; Group II, 3.6 mg) was 6 (100%). For the same compound, the “Any related TEAE, number AEs” value (healthy subjects [1]; Group II, 3.6 mg) was 17, the “Subjects with at least one AE, n (x %)” value (healthy subjects [1]; Group II, 3.6 mg) was 6 (100%) and the “Subjects with at least one AE, number AEs” value (healthy subjects [1]; Group II, 3.6 mg) was 27. The “subjects with liver enzymes elevated at follow-up” value (healthy subjects [1]; Group II, 3.6 mg) was “three subjects”, the “events reported among subjects treated with active drug” value (healthy subjects [1]; Group II) was 19 events and the “events considered probably or possibly related to study drug” value (healthy subjects [1]; Group II) was 17 events. The “subjects reporting euphoric mood” value (healthy subjects [1]; Group III (so in the source), three subjects) was 50.0%, the “duration of intermittent cough” value (healthy subjects [1]; active treatment, Group I) was “between four and nine days” and the “duration of intermittent cough” value (healthy subjects [1]; active treatment, Group II) was “between six and 18 days”. The subjects reporting somnolence (healthy subjects [1]; active treatment, two subjects in each group) was 33.3%, the “overall safety and tolerability” value (healthy subjects [1]; single and multiple dosing with 1.2 and 3.6 mg, pulmonary inhaled) was “safe and well-tolerated” and the “vital signs, ECG, physical examination, telemetric monitoring and pulmonary function tests” value (healthy subjects [1]; summary) was “No dose-related trends or clinically significant changes”. For the same compound, the “deaths or serious adverse events” value (healthy subjects [1]; whole study) was “No deaths or serious adverse events”, the “intensity of TEAEs” value (healthy subjects [1]; whole study) was “mild intensity” and the “serious or severe AEs, AEs leading to premature termination” value (healthy subjects [1]; whole study) was “no serious or severe AEs”. For the same compound, the “part of an orally administered dose that reaches systemic circulation” value [2] was 10-20%, the “effect on heart rate” value (healthy subjects [3]; 0.3 mg dose, Groups I-II) was “did not differ markedly from that observed with placebo” and the “duration of heart rate increase” value (healthy subjects [3]; 1.2 mg) was 5 min. For the same compound, the “increase in heart rate relative to placebo” value (healthy subjects [3]; 1.2 mg, 5 minutes after dosing) was “approximately 12 bpm”, the “duration of heart rate increase” value (healthy subjects [3]; 2.4 mg) was “about 15 minutes” and the “largest effect on heart rate, increase compared to placebo” value (healthy subjects [3]; 7.2 mg) was “about 46 bpm”. For the same compound, the “duration of heart rate increase” value (healthy subjects [3]; 9.6 mg) was “about 2.0 hours”, the “time of return of heart rate to normal after dosing” value (healthy subjects [3]; Group III (elderly, 3.6 mg)) was 5 min and the heart rate increase (healthy subjects [3]; Group III (elderly, 3.6 mg), at 2 minutes) was 10 bpm. For the same compound, the “placebo corrected diastolic and systolic blood pressure” value (healthy subjects [3]; across the dose levels investigated) was “no clear dose-relationship”, the “duration of effect on heart rate” value (healthy subjects [3]; after single dosing) was “approximately 2 hours” and the “time of maximum effect on heart rate” value (healthy subjects [3]; after single dosing) was 2 to 5 min. The “placebo corrected heart rate” value (healthy subjects [3]; between 0.17 and 5 hours post dose) was “dose related increase”, the “subjects with slight conjunctiva congestion” value (healthy subjects [4]; 1.2 mg, Day 12, 10 minutes after dosing) was “only one subject” and the “time to resolution of conjunctiva congestion post-dose” value (healthy subjects [4]; 1.2 mg, Day 12, one subject) was ≤ 4 h. For the same compound, the “conjunctiva congestion, rest of the study” value (healthy subjects [4]; Groups I and II (1.2 mg and 3.6 mg)) was “No other observation of conjunctiva congestion”, the “FEV1, lowest result during the study” value (healthy subjects [5]; one subject with below-normal pre-dose FEV1, Day 11, after six days of dosing with 1.2 mg) was 63% and the “FEV1 at the follow-up visit” value (healthy subjects [5]; same single subject, 1.2 mg) was 58 % of predicted. The “Choice Reaction Time against placebo” value (healthy subjects [6]) was “significant decrement; also recorded: significant benefit”, the “Delayed Word Recall Words Correctly Recalled, primary analysis” value (healthy subjects [6]) was “no significant effect of dose” and the “Delayed Word Recognition Sensitivity Index, primary analysis” value (healthy subjects [6]) was “no significant effect of dose”. For the same compound, the “Delayed Word Recognition Speed against placebo” value (healthy subjects [6]) was “benefits”, the “Digit Vigilance Speed, primary analysis” value (healthy subjects [6]) was “no significant effect of dose” and the “Digit Vigilance Targets Detected, baseline score” value (healthy subjects [6]) was 95.6% and 96.7% and 97.4% and 98.5%. For the same compound, the “Immediate Word Recall Words Correctly Recalled, primary analysis” value (healthy subjects [6]) was “no significant effect of dose”, the “Numeric Working Memory Sensitivity Index, primary analysis” value (healthy subjects [6]) was “no significant effect of dose” and the “Numeric Working Memory Speed, primary analysis” value (healthy subjects [6]) was “no significant effect of dose”. For the same compound, the “Picture Recognition Sensitivity Index, primary analysis” value (healthy subjects [6]) was “no significant effect of dose”, the “Picture Recognition Speed, primary analysis” value (healthy subjects [6]) was “no dose*time interaction” and the “Self-rated Alertness, comparisons against placebo” value (healthy subjects [6]) was “no decrements”. For the same compound, the “Self-rated Calmness, primary analysis” value (healthy subjects [6]) was “no significant effect of dose”, the “Self-rated Contentment, comparisons” value (healthy subjects [6]) was “no support for differences between the doses on either day” and the “Simple Reaction Time, comparisons” value (healthy subjects [6]) was “did not show any significant differences”. The “Spatial Working Memory Sensitivity Index against placebo” value (healthy subjects [6]) was “significant decrement”, the “Spatial Working Memory Sensitivity Index, primary analysis” value (healthy subjects [6]) was “significant main effect of dose” and the “Spatial Working Memory Speed, primary analysis” value (healthy subjects [6]) was “no significant effect of dose”. The “Tracking Average Distance from Target, primary analysis” value (healthy subjects [6]) was “no significant effect of dose” and the “cognitive function effects (summary)” value (healthy subjects [6]) was “Minimal cognitive function effects”.
